These results are taken from patent publication US20240408274A1, “STENTS AND METHODS OF USE” (UNIVERSITY OF CONNECTICUT, priority 2021, published 2024).

The assay has as its system Urothelial cell. The experiment in a line: Urothelial cell scratch assay (wound assay). Type of assay: cell-based. The note with it: at 48 hours; FIGS. 7A-7B. The text has this: As used herein a “scratch assay,” (i.e., a wound assay) is a method to measure two-dimensional cell migration. Six growth factors were selected and tested: EGF, FGF-2, PDGF, TGF-β1, and VEGF.

Regarding “EGF: epidermal growth factor, growth factor tested in urothelial scratch assay (NSDSECPLSHDGYCLHDGVCMYIEALDKYACNCVVGYIGERCQYRDLKWWELR; UniProt P01133 971-1023, looked up)”, the wound gap coverage entry is recorded as “increase”.
For “IGF-1: insulin-like growth factor 1, growth factor tested in urothelial scratch assay”, the wound gap coverage entry is given as “increase”.
